The record followed here is the SangsterLogP compilation.

The logP is a log measure of how a compound divides between an organic and an aqueous phase.

As to `Cc1cccc2c1Oc1ccccc1C2NC(=O)CCN(C)C` (stereo unspecified), the logP was found to be 2.61. As for `Cc1cc(C)c2c(c1)C(NC(=O)N(CCCl)N=O)c1ccccc1O2` (stereo unspecified), the logP amounted to 5.19. In the case of `COc1ccc2c(c1)C(NC(=O)N(CCCl)N=O)c1ccccc1O2` (stereo unspecified) it was 4.48; in that of `CCOc1ccc2c(c1)C(NC(=O)N(CCCl)N=O)c1ccccc1O2` (stereo unspecified), 4.86. In the case of `O=NN(CCCl)C(=O)NCCSC1c2ccccc2Oc2ccccc21` it was 5. As for `CCN(CC)CC(=O)NC1c2ccccc2Sc2c(C)cccc21` (stereo unspecified), the figure is 4.24. Take `O=NN(CCCl)C(=O)NCC1c2ccccc2Oc2ccccc21`: the logP was determined as 4.13. As for `Cc1cccc2c1Oc1ccccc1C2NC(=O)N(CCCl)N=O` (stereo unspecified), the figure is 4.77; as for `CCN(CC)CC(=O)NC1c2ccccc2Oc2ccccc21`, 3.49; as for `Cc1ccc2c(c1)C(NC(=O)N(CCCl)N=O)c1ccccc1O2` (stereo unspecified), 4.65. In turn, `COc1cccc2c1Oc1ccccc1C2NC(=O)N(CCCl)N=O` (stereo unspecified) yielded a logP of 3.68. As for `Cc1cccc2c1Oc1ncccc1C2NC(=O)CN(C)C` (stereo unspecified), the figure is 2.19; as for `Cc1ccc2c(c1)C(NC(=O)N(CCCl)N=O)c1ccccc1S2` (stereo unspecified), 5.01.

Regarding `O=NN(CCCl)C(=O)NC1c2ccccc2Oc2ccccc21`, the logP is 4.17.

For the compound `Cc1cccc2c1Sc1ccccc1C2NC(=O)N(CCCl)N=O` (stereo unspecified), the lipophilicity (logP) is 5.03. In the case of `O=NN(CCCl)C(=O)NC1c2ccccc2Sc2ccccc21` it was 4.59.
